The values that follow come from patent US5830667A, “Human P450 IID6 cytochrome-derived peptide fragments, anti-peptide fragment antibodies, applications thereof in the diagnosis of autoimmune hepatitis” (Institut National de la Sante et de la Recherche …, priority 1991, dated 1998).

Ends that are not written are not given here.

Data set [1] concerns anti-LKM antibodies (LKM-positive sera). Put plainly: ELISA test of cytochrome P450 IID6 peptides with human sera. The format is binding. The settings on record: for number of patients whose sera recognize the peptide: tested by ELISA and immunoblotting, 15 patients. As to the method: The peptides are redissolved in a PBS buffer, pH 7.4 and diluted in order to obtain concentrations of 0.1, 0.2, 0.5 and 1 μg/ml; 100 μl per well of each peptide solution are incubated overnight in microtitre plates containing 96 wells (IMMULON2a commercially available ELISAPLATE, Dynatech, Poly-Labo, Paris--FRANCE). The ELISA analysis is then performed as described in GUEGUEN M. et al., (Biochem. Biophys. Res. Commun., 1989, 159, 542), using the various human sera described above. The first antibodies are tested at dilutions ranging from 1/100 to 1/12,800. The alkaline phosphatase-conjugated goat anti-human IgG antibody is used as second antibody at a dilution of 1/1000. The test is developed by adding 100 μl of p-nitrophenyl phosphate at a concentration of 1 mg/ml in a 0.05M NaCO3 buffer, pH 9.8 and 0.001M MgCl2. The results read after incubating for 30 minutes at room temperature are considered positive when they are higher by a factor of 2 compared with the control serum.

The subject of the next data set is anti-LKM autoantibodies. In words: Peptide fragments used as diagnostic reagents for autoimmune hepatitis. Format: binding, human.
Data set [2] relates to anti-LKM antibodies (LKM-positive sera). In words: Immunoblotting of cytochrome P450 IID6 peptides with LKM-positive sera. The format is binding, human. On the procedure: (§1) The expression of the fusion proteins from the cDNA constructs is described by STANLEY (Nucleic Acids Research, 1983, 11, 4077). 100 μl culture samples, for each fusion protein, are subjected to electrophoresis on an 8-20% SDS-polyacrylamide gel, transferred onto nitrocellulose and analysed by the immunoblot technique.
(§2) The first antibodies used for the immunoblot method are:
(§3) 1) sera from patients responding positively to the anti-LKM antibodies;
(§4) Depending on the origin of the first antibody, the second antibody is either a peroxydase-goat anti-human IgG conjugate, or a peroxydase-goat anti-mouse IgG conjugate (Biosys), at a dilution of 1/1000.
The different peptides and especially peptides 254-271 (peptide of formula II) , 264-281 and 410-429 (peptide of formula X), are coupled to BSA via their free NH2 -terminal group, using glutaraldehyde (see especially E. HARLOW and D. LANE, 1988, Antibodies, A laboratory manual, Cold Spring Harbor Laboratory).

The test system is the same in data set [3]. Put plainly: Immunoblot analysis of the fusion proteins P450 IID6/β-gal with LKM-positive sera. Format: binding, human. The settings on record: eleven sera tested; FIG. 2. On the procedure: b) Expression and immunoblot analysis of the fusion proteins obtained from the various constructs of pEX-627-LKMHC5 and pEX-627-LKMC1/BamHI.
as §1, §2, §3, §4
Rat liver and human liver microsomes and β-galactosidase, expressed by the plasmid pEX-627 not comprising the P450 DNA insert, are included on the same gels as positive controls and negative control respectively.

Regarding “EKPYPEHFLDAQGHFVKPEA [Peptide of formula X, amino acids 410-429 of human cytochrome P450 IID6]”, the “number of patients whose sera recognize the peptide” value (from here on “number”) in data set [1] worked out at 2 patients/15. The “positive response in patients suffering from autoimmune hepatitis” value with anti-LKM autoantibodies is “positive response in most patients”. Take “GMTHMTSRDIGVQGFRI [Peptide of formula IX, Gly-Met-Thr-His-Met-Thr-Ser-Arg-Asp-Ile-Gly-Val-Gln-Gly-Phe-Arg-Ile]”: in data set [1], the “number” value is 1 patients/15. As to “LLTEHRMTWDPAQPPRDL [Peptide of formula II, Leu-Leu-Thr-Glu-His-Arg-Met-Thr-Trp-Asp-Pro-Ala-Gln-Pro-Pro-Arg-Asp-Leu]”, in data set [1], the “recognized by LKM-positive sera when tested by ELISA” value is on record as “recognized by all the LKM-positivesera”. For the same molecule, the “recognized by LKM-positive sera when tested by immunoblotting” value in data set [2] is reported as “recognized by all the LKM-positivesera”. For the molecule “MILHPDVQRRVQQEIDDVIGQVRRPEMGDQA [Peptide of formula Va]”, the “number” value in data set [1] was determined as 8 patients/15. In addition, the “positive response in patients suffering from autoimmune hepatitis” value in the data set on anti-LKM autoantibodies is on record as “positive response in most patients”.

B1: LKMC1/BamHI: fusion protein from EcoRI-BamHI fragment of LKMC1, cDNA clone encoding rat cytochrome P450 db2, in plasmid pEX-627 (protein)
chain: MGLLIGDDLWAVVIFTAIFLLLVDLVHRHKFWTAHYPPGPVPLPGLGNLLQVDFENMPYSLYKLRSRYGDVFSLQIAWKPVVVINGLKAVRELLVTYGEDTADRPLLPIYNHLGYGNKSKGVVLAPYGPEWREQRRFSVSTLRDFGVGKKSLEQWVTEEAGHLCDTFAKEAEHPFNPSILLSKAVSNVIASLVYARRFEYEDPFFNRMLKTLKESFGEDTGFMAEVLNAIPILLQIPGLPGKVFPKLNSFIALVDKMLIEHKKSWD
With B1, the “recognition of fusion protein by LKM-positive sera on the immunoblots” value in data set [3] is reported as “None of the sera of the patients tested recognizes”.
